This is an account of results in article PMC8976378, “NADH oxidase of Mycoplasma hyopneumoniae functions as a potential mediator of virulence” (BMC Veterinary Research, 2022).

The structures appear in SMILES notation.

This assay concerns the target rNOX (NADH oxidase, NOX) (Mesomycoplasma hyopneumoniae, UniProt E4QS87). Nature of the assay: NADH oxidation, absorbance at […] nm. It counts as biochemical. To be noted: 0.5 mM NADH; 10 uM FAD added; 0.1 M potassium phosphate pH 7.5, 1 mM dithiothreitol; 25 °C; 5 ug/mL enzyme.

rNOX (NADH oxidase, NOX), sequence (E4QS87 entry or part of it): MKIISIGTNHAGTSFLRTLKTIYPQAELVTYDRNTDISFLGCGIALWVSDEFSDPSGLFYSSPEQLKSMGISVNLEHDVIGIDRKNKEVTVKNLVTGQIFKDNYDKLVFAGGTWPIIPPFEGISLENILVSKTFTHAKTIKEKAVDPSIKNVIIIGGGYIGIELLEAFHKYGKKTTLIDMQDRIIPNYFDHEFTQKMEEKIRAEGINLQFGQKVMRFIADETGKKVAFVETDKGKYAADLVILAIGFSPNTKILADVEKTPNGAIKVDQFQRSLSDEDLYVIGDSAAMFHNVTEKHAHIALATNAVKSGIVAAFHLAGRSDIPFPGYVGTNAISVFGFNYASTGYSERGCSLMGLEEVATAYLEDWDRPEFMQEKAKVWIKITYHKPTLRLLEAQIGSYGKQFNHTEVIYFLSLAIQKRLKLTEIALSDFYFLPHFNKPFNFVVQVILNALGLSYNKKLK

For `NC(=O)C1=CN([C@@H]2O[C@H](COP(=O)(O)OP(=O)(O)OC[C@H]3O[C@@H](n4cnc5c(N)ncnc54)[C@H](O)[C@@H]3O)[C@@H](O)[C@H]2O)C=CC1` [NADH], the “NADH oxidation, absorbance at 340 nm” value is on record as “enzymatic activity of purified rNOX was determined by measuring the oxidation of NADH to NAD^+”.
